# Tested on: Aβ42 secretion
# Assay: Cellular γ-secretase assay (inhibition of Aβ42 secretion)
# Format: cell-based
# Details: Homo sapiens, 22 h, human neuroglioma H4 cells overexpressing human APP, 22 hours incubation
# Procedure: Cellular γ-Secretase Assay
# The compounds were investigated in accordance with the test given hereinafter.
# Human neuroglioma H4 cells overexpressing human APP were plated at 30,000 cells/well/200 μL in 96-well plates in IMDM media containing 10% FCS, […] Hygromycin B and incubated for 2 hours at 37° C., 5% CO2 prior to adding test compounds.
# Compounds for testing were dissolved in 100% Me2SO yielding in a 10 mM stock solution. Typically 12 μL of these solutions were further diluted in 1000 μL of IMDM media (w/o FCS). Subsequent 1:1 dilutions gave a ten point dose response curve. 100 μL of each dilution was added to the cells in 96-well plates. Appropriate controls using vehicle only and reference compound were applied to this assay. The final concentration of Me2SO was 0.4%.
# After incubation for 22 hours at 37° C., 5% CO2, 50 μL supernatant was transferred into round-bottom 96-well polypropylene plates for detection of Aβ42. 50 μL assay buffer (50 mM Tris/Cl, pH 7.4, 60 mM NaCl, 0.5% BSA, 1% TWEEN 20) was added to the wells followed by the addition of 100 μL of detection antibody (ruthenylated BAP15 0.0625 μg/mL in assay buffer). 50 μL of a premix of capture antibody (biotinylated 6E10 antibody, 1 μg/mL) and Streptavidin-coated magnetic beads (Dynal M-280, 0.125 mg/mL) were preincubated for 1 hour at room temperature before adding the assay plates. Assay plates were incubated on a shaker for 3 hours at room temperature and finally read in the Bioveris M8 Analyser according to the manufacturer's instructions (Bioveris).
# IC50 values for inhibition of Aβ42 secretion were calculated by nonlinear regression fit analysis using XLfit 4.0 software (IDBS).
row,SMILES,EC50
1,"CS(=O)(=O)N1CCCC(c2ccc3[nH]c(C(=O)Nc4cc(F)cc(F)c4)cc3c2)C1 (centres unmarked) [Example 49, 5-(1-Methanesulfonyl-piperidin-3-yl)-1H-indole-2-carboxylic acid (3,5-difluoro-phenyl)-amide]",0.148 µM
2,"CC(C)N1CCCC(c2ccc3[nH]c(C(=O)Nc4cc(F)cc(C#N)c4)cc3c2)C1 (centres unmarked) [Example 31, 5-(1-Isopropyl-piperidin-3-yl)-1H-indole-2-carboxylic acid (3-cyano-5-fluoro-phenyl)-amide]",2.38 µM
3,"COCCN1CCCC(c2ccc3[nH]c(C(=O)Nc4cc(F)cc(F)c4)cc3c2)C1 (centres unmarked) [Example 60, 5-[1-(2-Methoxy-ethyl)-piperidin-3-yl]-1H-indole-2-carboxylic acid (3,5-difluoro-phenyl)-amide]",1.38 µM
4,"O=C(Nc1cncc(F)c1)c1cc2cc(C3CCN(Cc4ccccc4)C3)ccc2[nH]1 (centres unmarked) [Example 74, 5-(1-Benzyl-pyrrolidin-3-yl)-1H-indole-2-carboxylic acid (5-fluoro-pyridin-3-yl)-amide]",1.86 µM
5,"CC(c1ccc2[nH]c(C(=O)Nc3cc(F)cc(F)c3)cc2c1)C1CCN(CC(F)(F)F)C1 (centres unmarked) [Example 96, N-(3,5-Difluorophenyl)-5-(1-(1-(2,2,2-trifluoroethyl)pyrrolidin-3-yl)ethyl)-1H-indole-2-carboxamide]",7.72 µM
6,"O=C(Nc1cc(F)cc(F)c1)c1cc2cc(C3CCCN(S(=O)(=O)C4CC4)C3)ccc2[nH]1 (centres unmarked) [Example 56, 5-(1-Cyclopropanesulfonyl-piperidin-3-yl)-1H-indole-2-carboxylic acid (3,5-difluoro-phenyl)-amide]",0.466 µM
7,"CC(=O)N1CCC[C@H](c2ccc3[nH]c(C(=O)Nc4cc(F)cc(F)c4)cc3c2)C1 [Example 112, 5-((R)-1-Acetyl-piperidin-3-yl)-1H-indole-2-carboxylic acid (3,5-difluoro-phenyl)-amide]",0.226 µM
8,"CC(C)OC(=O)N1CCC(c2ccc3[nH]c(C(=O)Nc4cncc(F)c4)cc3c2)C1 (centres unmarked) [Example 77, isopropyl 3-(2-(5-fluoropyridin-3-ylcarbamoyl)-1H-indol-5-yl)pyrrolidine-1-carboxylate]",3.76 µM
9,"C[C@@H](c1ccc2[nH]c(C(=O)Nc3cc(F)cc(F)c3)cc2c1)[C@H]1CCN(CC(F)(F)F)C1 [Example 121, N-(3,5-Difluorophenyl)-5-((R)-1-((R)-1-(2,2,2-trifluoroethyl)pyrrolidin-3-yl)ethyl)-1H-indole-2-carboxamide]",7.48 µM
10,"O=C(Nc1ccc(F)c(F)c1)c1cc2cc(C(O)CN3CCCCC3)ccc2[nH]1 (centres unmarked) [Example 100, 5-(1-Hydroxy-2-piperidin-1-yl-ethyl)-1H-indole-2-carboxylic acid (3,4-difluoro-phenyl)-amide]",2.61 µM
11,"N#Cc1cc(F)cc(NC(=O)c2cc3cc(C4CCN(Cc5ccccc5)C4)ccc3[nH]2)c1 (centres unmarked) [Example 5, 5-(1-Benzylpyrrolidin-3-yl)-N-(3-cyano-5-fluorophenyl)-1H-indole-2-carboxamide]",0.631 µM
12,"O=C(Nc1cc(F)cc(F)c1)c1cc2cc(C3CCCN(C(=O)c4ccccc4)C3)ccc2[nH]1 (centres unmarked) [Example 55, 5-(1-Benzoyl-piperidin-3-yl)-1H-indole-2-carboxylic acid (3,5-difluoro-phenyl)-amide]",0.449 µM
13,"CC(c1ccc2[nH]c(C(=O)Nc3cc(F)cc(F)c3)cc2c1)C1CCNC1 (centres unmarked) [Example 92, N-(3,5-Difluorophenyl)-5-(1-(pyrrolidin-3-yl)ethyl)-1H-indole-2-carboxamide]",1.18 µM
14,"CC(CN1CCCC1)c1ccc2[nH]c(C(=O)Nc3cccc(F)c3)cc2c1 (centres unmarked) [Example 99, N-(3-Fluorophenyl)-5-(1-(pyrrolidin-1-yl)propan-2-yl)-1H-indole-2-carboxamide]",1.25 µM
15,"COCC(=O)N1CCCC(c2ccc3[nH]c(C(=O)Nc4cc(F)cc(F)c4)cc3c2)C1 (centres unmarked) [Example 57, 5-[1-(2-Methoxy-acetyl)-piperidin-3-yl]-1H-indole-2-carboxylic acid (3,5-difluoro-phenyl)-amide]",0.668 µM
16,"N#Cc1cc(F)cc(NC(=O)c2cc3cc(C4CCNC4)ccc3[nH]2)c1 (centres unmarked) [Example 9, N-(3-Cyano-5-fluorophenyl)-5-(pyrrolidin-3-yl)-1H-indole-2-carboxamide]",1.27 µM
17,"O=C(Nc1cncc(F)c1)c1cc2cc(C3CCN(S(=O)(=O)c4ccc(F)cc4)C3)ccc2[nH]1 (centres unmarked) [Example 84, 5-(1-(4-Fluorophenylsulfonyl)pyrrolidin-3-yl)-N-(5-fluoropyridin-3-yl)-1H-indole-2-carboxamide]",4.86 µM
18,"CC(c1ccc2[nH]c(C(=O)Nc3cc(F)cc(F)c3)cc2c1)C1CCN(C(C)C)C1 (centres unmarked) [Example 93, N-(3,5-Difluorophenyl)-5-(1-(1-isopropylpyrrolidin-3-yl)ethyl)-1H-indole-2-carboxamide]",1.19 µM
19,"O=C(Nc1cc(F)cc(F)c1)c1cc2cc(C3CCN(CC(F)(F)F)C3)ccc2[nH]1 (centres unmarked) [Example 10, 5-[1-(2,2,2-Trifluoro-ethyl)-pyrrolidin-3-yl]-1H-indole-2-carboxylic acid (3,5-difluoro-phenyl)-amide]",3.83 µM

# Now from value to compound:
row,EC50,SMILES
1,2.51 µM,"CC(C)N1CCC(c2ccc3[nH]c(C(=O)Nc4ccc(F)cc4)cc3c2)CC1 [Example 48, 5-(1-Isopropyl-piperidin-4-yl)-1H-indole-2-carboxylic acid (4-fluoro-phenyl)-amide]"
2,0.662 µM,"O=C(Nc1cccc(F)c1)c1cc2cc(C3CCCNC3)ccc2[nH]1 (centres unmarked) [Example 69, N-(3-Fluorophenyl)-5-(piperidin-3-yl)-1H-indole-2-carboxamide]"
3,0.321 µM,"CC(C)N1CCC(c2ccc3[nH]c(C(=O)Nc4cc(F)cc(F)c4)cc3c2)C1 (centres unmarked) [Example 11, 5-(1-Isopropyl-pyrrolidin-3-yl)-1H-indole-2-carboxylic acid (3,5-difluoro-phenyl)-amide]"
4,0.942 µM,"N#CCN1CCC(c2ccc3[nH]c(C(=O)Nc4cncc(F)c4)cc3c2)C1 (centres unmarked) [Example 80, 5-(1-Cyanomethyl-pyrrolidin-3-yl)-1H-indole-2-carboxylic acid (5-fluoro-pyridin-3-yl)-amide]"
5,0.646 µM,"N#CCN1CC[C@H](c2ccc3[nH]c(C(=O)Nc4cccc(F)c4)cc3c2)C1 [Example 108, (R)-5-(1-(Cyanomethyl)pyrrolidin-3-yl)-N-(3-fluorophenyl)-1H-indole-2-carboxamide]"
6,0.373 µM,"N#CCN1CCC(c2ccc3[nH]c(C(=O)Nc4cccc(F)c4)cc3c2)C1 (centres unmarked) [Example 16, 5-(1-(Cyanomethyl)pyrrolidin-3-yl)-N-(3-fluorophenyl)-1H-indole-2-carboxamide]"
7,0.727 µM,"COCCN1CCCC(c2ccc3[nH]c(C(=O)Nc4cccc(F)c4)cc3c2)C1 (centres unmarked) [Example 66, N-(3-Fluorophenyl)-5-(1-(2-methoxyethyl)piperidin-3-yl)-1H-indole-2-carboxamide]"
8,12.6 µM,"CC(C)N1CCC(c2ccc3[nH]c(C(=O)Nc4ccc(F)cc4F)cc3c2)CC1 [Example 29, 5-(1-Isopropyl-piperidin-4-yl)-1H-indole-2-carboxylic acid (2,4-difluoro-phenyl)-amide]"
9,9.29 µM,"O=C(Nc1cccc(F)c1)c1cc2cc(C3CCCN(CC(F)(F)F)C3)ccc2[nH]1 (centres unmarked) [Example 73, N-(3-Fluorophenyl)-5-(1-(2,2,2-trifluoroethyl)piperidin-3-yl)-1H-indole-2-carboxamide]"
10,1.91 µM,"COC(=O)N1CCC(c2ccc3[nH]c(C(=O)Nc4ccc(F)cc4)cc3c2)CC1 [Example 41, 4-[2-(4-Fluoro-phenylcarbamoyl)-1H-indol-5-yl]-piperidine-1-carboxylic acid methyl ester]"
11,19.4 µM,"CC(C)N1CCC(c2ccc3[nH]c(C(=O)Nc4ccccc4F)cc3c2)CC1 [Example 24, 5-(1-Isopropyl-piperidin-4-yl)-1H-indole-2-carboxylic acid (2-fluoro-phenyl)-amide]"
12,10.9 µM,"COc1ccc(NC(=O)c2cc3cc(C4CCN(C(C)C)CC4)ccc3[nH]2)cc1 [Example 26, 5-(1-Isopropyl-piperidin-4-yl)-1H-indole-2-carboxylic acid (4-methoxy-phenyl)-amide]"
13,1.15 µM,"CC(C)N1CCCC(c2ccc3[nH]c(C(=O)Nc4ccc(F)cc4)cc3c2)C1 (centres unmarked) [Example 47, 5-(1-Isopropyl-piperidin-3-yl)-1H-indole-2-carboxylic acid (4-fluoro-phenyl)-amide]"
14,0.852 µM,"CC(C)N1CCC(c2ccc3[nH]c(C(=O)Nc4ccc(F)c(F)c4)cc3c2)CC1 [Example 28, 5-(1-Isopropyl-piperidin-4-yl)-1H-indole-2-carboxylic acid (3,4-difluoro-phenyl)-amide]"
15,1.32 µM,"C=CCN1CCC(c2ccc3[nH]c(C(=O)Nc4ccc(F)cc4)cc3c2)CC1 [Example 39, 5-[1-Allyl-piperidin-4-yl]-1H-indole-2-carboxylic acid (4-fluoro-phenyl)-amide]"
16,12.9 µM,"O=C(Nc1ccc(F)cc1)c1cc2cc(C3CCN(CCc4ccccc4)CC3)ccc2[nH]1 [Example 45, 5-(1-Phenethyl-piperidin-4-yl)-1H-indole-2-carboxylic acid (4-fluoro-phenyl)-amide]"
